From PMC10659432 (bioRxiv, 2023) come the findings set out here.

Test [1] concerns the target T1, 5-HT1FR (Homo sapiens, UniProt P30939). Kind of test: BRET Gi1 activation assay in transfected HEK293T cells, agonism. The test is classed as cell-based. A general note: Bioluminescence resonance energy transfer reports proximity on the nanometre scale.
Test [2] has as its target T2, 5-HT1eR (Homo sapiens, UniProt P28566). The description is as above. The test is classed as cell-based.
Target sequence in this assay (P63096 2-354): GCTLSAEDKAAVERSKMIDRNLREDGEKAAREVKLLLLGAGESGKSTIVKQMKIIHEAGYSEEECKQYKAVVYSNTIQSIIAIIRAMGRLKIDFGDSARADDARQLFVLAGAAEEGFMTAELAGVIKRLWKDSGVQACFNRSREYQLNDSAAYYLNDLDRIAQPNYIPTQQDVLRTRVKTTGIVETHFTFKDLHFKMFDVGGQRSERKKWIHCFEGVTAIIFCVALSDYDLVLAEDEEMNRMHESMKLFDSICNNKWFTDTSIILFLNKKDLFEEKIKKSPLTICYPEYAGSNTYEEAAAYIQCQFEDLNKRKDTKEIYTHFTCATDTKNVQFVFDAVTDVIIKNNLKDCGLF
Target sequence in this assay (P62873 2-340, further chain): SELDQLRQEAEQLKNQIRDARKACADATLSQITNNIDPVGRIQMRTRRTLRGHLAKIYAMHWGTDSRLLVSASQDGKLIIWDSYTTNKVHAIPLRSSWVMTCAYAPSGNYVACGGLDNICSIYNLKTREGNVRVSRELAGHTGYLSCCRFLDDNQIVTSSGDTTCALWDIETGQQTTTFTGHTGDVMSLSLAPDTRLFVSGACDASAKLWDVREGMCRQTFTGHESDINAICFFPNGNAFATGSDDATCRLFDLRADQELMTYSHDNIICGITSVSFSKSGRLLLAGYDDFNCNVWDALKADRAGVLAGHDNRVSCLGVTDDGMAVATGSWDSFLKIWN
Target sequence in this assay (P59768 2-68, further chain): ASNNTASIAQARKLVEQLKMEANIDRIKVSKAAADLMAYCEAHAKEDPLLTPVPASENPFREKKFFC
Target sequence in this assay (P28566 whole entry): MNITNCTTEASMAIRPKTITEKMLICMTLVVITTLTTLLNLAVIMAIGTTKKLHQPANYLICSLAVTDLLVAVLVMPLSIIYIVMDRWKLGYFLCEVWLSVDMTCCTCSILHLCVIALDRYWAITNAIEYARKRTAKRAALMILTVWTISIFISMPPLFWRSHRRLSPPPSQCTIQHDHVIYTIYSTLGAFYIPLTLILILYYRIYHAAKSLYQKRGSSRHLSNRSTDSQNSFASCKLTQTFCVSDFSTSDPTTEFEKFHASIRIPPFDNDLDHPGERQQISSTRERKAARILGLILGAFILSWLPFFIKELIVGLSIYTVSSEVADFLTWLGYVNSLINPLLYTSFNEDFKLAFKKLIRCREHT
Test [3] addresses T1, 5-HT1FR. As to the kind of experiment: G protein BRET assay in transfected HEK293T cells, full agonism. The class given is cell-based.
The target of test [4] is T2, 5-HT1eR. Kind of test: cryoEM structure at […] Å. The test is classed as cell-based.
Target sequence in this assay (P28566 whole entry): as above
The target of test [5] is T2, 5-HT1eR. Kind of test: cryoEM structure at […] Å.
Target sequence in this assay (P28566 whole entry): as above
Test [6] deals with T1, 5-HT1FR. As to the kind of experiment: G protein BRET assay in transfected HEK293T cells, agonism. The test is classed as cell-based.

T1 sequence (P62873 2-340): as the sequence (P62873 2-340, further chain) above
T1 sequence (P30939 whole entry): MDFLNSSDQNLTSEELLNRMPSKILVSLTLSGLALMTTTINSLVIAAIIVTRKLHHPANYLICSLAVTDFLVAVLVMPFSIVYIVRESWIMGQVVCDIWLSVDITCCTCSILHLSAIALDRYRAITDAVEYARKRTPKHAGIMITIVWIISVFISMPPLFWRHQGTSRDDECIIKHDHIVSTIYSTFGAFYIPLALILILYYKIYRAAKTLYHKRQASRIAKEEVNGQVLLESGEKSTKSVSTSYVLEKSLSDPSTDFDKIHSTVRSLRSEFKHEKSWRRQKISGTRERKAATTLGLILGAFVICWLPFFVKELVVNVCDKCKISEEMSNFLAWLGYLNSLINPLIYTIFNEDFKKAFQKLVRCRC
T1 sequence (P63096 2-354, further chain): as the sequence (P63096 2-354) above
T1 sequence (P59768 2-68, further chain): as the sequence (P59768 2-68, further chain) above

Turning to `Cc1cc(C(C)(C)C)c(O)c(C)c1CC1=NCCN1` [oxymetazoline], in test [1], the EC50 worked out at 11.3 nM. On to `CC[C@@H](CO)NC(=O)[C@@H]1C=C2c3cccc4[nH]cc(c34)C[C@H]2N(C)C1` [methylergonovine], for which the EC50 in test [1] was 5.2 nM; in test [2], 17 nM. With `CN1CCC2=C(C1)c1ccccc1Cc1ccccc12` [setiptiline], the EC50 in test [3] turned out to be 64.6 nM; in test [4], 171 nM. Take `CN1CCC(=C2c3ccccc3Sc3ccccc32)CC1` [pimethixene]: the figures for the EC50 in test [1] and in test [2] were 456 nM and 353 nM, respectively. For the molecule `CN1CCN2c3ccccc3Cc3ccccc3C2C1` (stereo not shown) [mianserin], the EC50 worked out at 47.5 nM in test [1] and 123 nM in test [5]. In test [6], `CN1CCN2c3ncccc3Cc3ccccc3C2C1` (stereo not shown) [mirtazapine] registered a 50% effective concentration (EC50) of 236 nM. This lies in the sub-micromolar range.

For orientation: EC50 means the midpoint of the concentration-response curve.
